These results are taken from ChEMBL document CHEMBL1201862, “PubChem BioAssay data set” (2004).

Common to all, as to assay type: functional
The target in assay [1] is Benomyl/methotrexate resistance protein (Candida albicans, UniProt P28873). The assay is described as follows: CaMdr1 efflux pump inhibitor potency, dose response, singleplex, Cherry Pick1 hits (AID 588608).
The target in assay [2] is Multidrug resistance protein CDR1 (Candida albicans, UniProt P43071). The experiment in a line: CaCDR1 efflux pump inhibitors in yeast, dose response, S. cerevisiae AD1-8u, singleplex, Cherry Pick1 hits (AID 588606).
Assay [3] concerns the target Multidrug resistance protein CDR2 (Candida albicans (strain SC5314 / ATCC MYA-2876) (Yeast), UniProt P78595). The assay is described as follows: CaCDR2 efflux pump inhibitors in yeast, dose response, S. cerevisiae AD1-8u, singleplex, Cherry Pick1 hits (AID 588604).
In assay [4] the target is Melanin-concentrating hormone receptor 1 (Homo sapiens, UniProt Q99705). The experiment in a line: Late-stage fluorescence-based counterscreen for antagonists of the G-protein coupled receptor 7 (GPR7): cell-based dose response assay to identify antagonists of the melanin-concentrating hormone receptor 1 (MCHR1) Set 5.
Assay [5] has as its target Neuropeptides B/W receptor type 1 (Homo sapiens, UniProt P48145). The assay is described as follows: GPR7 antagonist potency, late-stage follow-up, cell-based, fluorescence, dose response, set 5 (AID 588566).
Assay [6] concerns the target T1, Serine/threonine-protein kinase D3 (Homo sapiens, UniProt O94806).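 Further: determined within a kinase panel screen, with PRKCN as the panel member.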
T1 sequence (O94806 whole entry): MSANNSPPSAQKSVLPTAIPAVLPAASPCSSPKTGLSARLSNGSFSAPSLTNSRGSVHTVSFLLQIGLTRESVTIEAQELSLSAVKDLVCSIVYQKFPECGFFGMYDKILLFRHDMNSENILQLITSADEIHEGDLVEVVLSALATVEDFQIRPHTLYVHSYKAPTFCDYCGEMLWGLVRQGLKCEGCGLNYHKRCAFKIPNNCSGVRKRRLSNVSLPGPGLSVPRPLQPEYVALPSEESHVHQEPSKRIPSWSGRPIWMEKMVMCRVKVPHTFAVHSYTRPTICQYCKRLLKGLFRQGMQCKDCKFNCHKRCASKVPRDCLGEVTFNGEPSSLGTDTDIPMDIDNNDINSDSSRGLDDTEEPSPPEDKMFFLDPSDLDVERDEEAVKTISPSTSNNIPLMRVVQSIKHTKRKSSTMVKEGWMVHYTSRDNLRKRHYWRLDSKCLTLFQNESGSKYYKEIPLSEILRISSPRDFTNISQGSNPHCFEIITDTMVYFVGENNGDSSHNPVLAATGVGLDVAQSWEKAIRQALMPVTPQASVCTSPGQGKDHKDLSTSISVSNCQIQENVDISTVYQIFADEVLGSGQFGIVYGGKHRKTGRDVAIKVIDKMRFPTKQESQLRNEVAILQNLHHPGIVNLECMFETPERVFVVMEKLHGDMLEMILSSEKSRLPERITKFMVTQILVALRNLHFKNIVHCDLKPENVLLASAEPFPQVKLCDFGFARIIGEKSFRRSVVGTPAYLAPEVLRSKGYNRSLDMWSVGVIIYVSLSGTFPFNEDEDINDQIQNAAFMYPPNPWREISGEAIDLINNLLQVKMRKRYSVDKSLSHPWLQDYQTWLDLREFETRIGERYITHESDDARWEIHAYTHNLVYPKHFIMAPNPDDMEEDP

The target of assay [7] is T2, Tyrosine-protein kinase receptor TYRO3 (Homo sapiens, UniProt Q06418).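 Further: TYRO3 value obtained as one member of a kinome-wide profiling panel.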
T2 sequence (Q06418 whole entry): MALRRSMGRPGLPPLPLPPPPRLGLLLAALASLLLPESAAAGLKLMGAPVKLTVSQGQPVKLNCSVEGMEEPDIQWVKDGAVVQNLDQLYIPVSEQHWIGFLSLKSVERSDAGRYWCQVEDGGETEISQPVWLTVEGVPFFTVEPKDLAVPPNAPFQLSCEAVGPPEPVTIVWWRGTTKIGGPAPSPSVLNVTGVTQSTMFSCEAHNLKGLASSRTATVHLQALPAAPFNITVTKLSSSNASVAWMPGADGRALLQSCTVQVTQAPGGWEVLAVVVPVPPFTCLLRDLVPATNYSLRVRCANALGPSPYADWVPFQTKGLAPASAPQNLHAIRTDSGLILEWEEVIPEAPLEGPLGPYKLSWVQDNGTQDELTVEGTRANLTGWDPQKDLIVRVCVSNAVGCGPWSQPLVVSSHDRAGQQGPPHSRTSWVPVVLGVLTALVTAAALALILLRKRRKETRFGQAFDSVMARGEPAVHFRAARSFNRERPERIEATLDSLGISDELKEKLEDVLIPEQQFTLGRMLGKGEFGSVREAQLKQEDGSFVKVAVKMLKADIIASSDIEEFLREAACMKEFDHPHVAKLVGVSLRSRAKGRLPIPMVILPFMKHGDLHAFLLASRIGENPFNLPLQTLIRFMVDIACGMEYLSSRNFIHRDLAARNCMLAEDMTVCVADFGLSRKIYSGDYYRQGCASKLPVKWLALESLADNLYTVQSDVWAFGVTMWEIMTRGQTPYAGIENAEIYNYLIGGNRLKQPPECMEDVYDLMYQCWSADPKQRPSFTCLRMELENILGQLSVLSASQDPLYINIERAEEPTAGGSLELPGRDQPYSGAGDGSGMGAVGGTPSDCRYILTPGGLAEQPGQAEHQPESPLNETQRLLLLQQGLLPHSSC

Assay [8] addresses Fibroblast growth factor receptor 1 (Homo sapiens, UniProt P11362).
Assay [9] deals with Ribosomal protein S6 kinase alpha-3 (Homo sapiens, UniProt P51812).
Sequence of Ribosomal protein S6 kinase alpha-3 (P51812 whole entry): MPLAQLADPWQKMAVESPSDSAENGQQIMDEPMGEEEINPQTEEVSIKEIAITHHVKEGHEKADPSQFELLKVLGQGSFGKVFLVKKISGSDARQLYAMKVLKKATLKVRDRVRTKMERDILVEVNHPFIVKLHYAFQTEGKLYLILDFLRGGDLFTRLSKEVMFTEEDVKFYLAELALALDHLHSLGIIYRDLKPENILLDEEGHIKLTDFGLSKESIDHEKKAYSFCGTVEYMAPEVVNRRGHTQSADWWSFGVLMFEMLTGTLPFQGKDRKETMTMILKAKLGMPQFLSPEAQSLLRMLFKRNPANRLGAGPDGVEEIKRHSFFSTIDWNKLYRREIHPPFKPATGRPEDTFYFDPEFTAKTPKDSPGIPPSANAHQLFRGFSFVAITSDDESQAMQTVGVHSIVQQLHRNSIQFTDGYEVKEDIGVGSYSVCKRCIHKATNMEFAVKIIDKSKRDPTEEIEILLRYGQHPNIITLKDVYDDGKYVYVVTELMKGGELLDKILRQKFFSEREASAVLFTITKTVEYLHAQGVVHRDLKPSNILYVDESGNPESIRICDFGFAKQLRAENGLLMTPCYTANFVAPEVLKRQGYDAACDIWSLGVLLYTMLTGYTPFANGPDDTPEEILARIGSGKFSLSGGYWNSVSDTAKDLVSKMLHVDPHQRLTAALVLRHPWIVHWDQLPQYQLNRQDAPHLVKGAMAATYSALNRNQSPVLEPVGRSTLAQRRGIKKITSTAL
Assay [10] concerns the target T3, Serine/threonine-protein kinase Chk1 (Homo sapiens, UniProt O14757).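 Further: measured as one member of a kinome-wide kinase profiling panel.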
T3 sequence (O14757 whole entry): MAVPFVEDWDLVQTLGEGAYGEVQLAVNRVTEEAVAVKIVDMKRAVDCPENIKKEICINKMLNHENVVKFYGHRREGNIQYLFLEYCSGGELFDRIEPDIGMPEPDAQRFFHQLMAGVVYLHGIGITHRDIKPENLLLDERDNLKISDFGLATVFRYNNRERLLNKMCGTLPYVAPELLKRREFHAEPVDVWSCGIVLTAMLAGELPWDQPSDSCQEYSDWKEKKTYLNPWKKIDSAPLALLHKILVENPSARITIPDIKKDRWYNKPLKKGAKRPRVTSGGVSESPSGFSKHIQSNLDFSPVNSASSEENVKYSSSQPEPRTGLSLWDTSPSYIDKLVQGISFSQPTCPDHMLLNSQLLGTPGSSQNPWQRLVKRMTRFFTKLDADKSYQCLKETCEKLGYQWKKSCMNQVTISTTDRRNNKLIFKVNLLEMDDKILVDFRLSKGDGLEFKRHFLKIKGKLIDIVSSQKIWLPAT

In assay [11] the target is ALK tyrosine kinase receptor (Homo sapiens, UniProt Q9UM73).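 Further: ALK tested as one member of a kinase panel screen.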
Sequence of ALK tyrosine kinase receptor (Q9UM73 whole entry, the tested form may be a part): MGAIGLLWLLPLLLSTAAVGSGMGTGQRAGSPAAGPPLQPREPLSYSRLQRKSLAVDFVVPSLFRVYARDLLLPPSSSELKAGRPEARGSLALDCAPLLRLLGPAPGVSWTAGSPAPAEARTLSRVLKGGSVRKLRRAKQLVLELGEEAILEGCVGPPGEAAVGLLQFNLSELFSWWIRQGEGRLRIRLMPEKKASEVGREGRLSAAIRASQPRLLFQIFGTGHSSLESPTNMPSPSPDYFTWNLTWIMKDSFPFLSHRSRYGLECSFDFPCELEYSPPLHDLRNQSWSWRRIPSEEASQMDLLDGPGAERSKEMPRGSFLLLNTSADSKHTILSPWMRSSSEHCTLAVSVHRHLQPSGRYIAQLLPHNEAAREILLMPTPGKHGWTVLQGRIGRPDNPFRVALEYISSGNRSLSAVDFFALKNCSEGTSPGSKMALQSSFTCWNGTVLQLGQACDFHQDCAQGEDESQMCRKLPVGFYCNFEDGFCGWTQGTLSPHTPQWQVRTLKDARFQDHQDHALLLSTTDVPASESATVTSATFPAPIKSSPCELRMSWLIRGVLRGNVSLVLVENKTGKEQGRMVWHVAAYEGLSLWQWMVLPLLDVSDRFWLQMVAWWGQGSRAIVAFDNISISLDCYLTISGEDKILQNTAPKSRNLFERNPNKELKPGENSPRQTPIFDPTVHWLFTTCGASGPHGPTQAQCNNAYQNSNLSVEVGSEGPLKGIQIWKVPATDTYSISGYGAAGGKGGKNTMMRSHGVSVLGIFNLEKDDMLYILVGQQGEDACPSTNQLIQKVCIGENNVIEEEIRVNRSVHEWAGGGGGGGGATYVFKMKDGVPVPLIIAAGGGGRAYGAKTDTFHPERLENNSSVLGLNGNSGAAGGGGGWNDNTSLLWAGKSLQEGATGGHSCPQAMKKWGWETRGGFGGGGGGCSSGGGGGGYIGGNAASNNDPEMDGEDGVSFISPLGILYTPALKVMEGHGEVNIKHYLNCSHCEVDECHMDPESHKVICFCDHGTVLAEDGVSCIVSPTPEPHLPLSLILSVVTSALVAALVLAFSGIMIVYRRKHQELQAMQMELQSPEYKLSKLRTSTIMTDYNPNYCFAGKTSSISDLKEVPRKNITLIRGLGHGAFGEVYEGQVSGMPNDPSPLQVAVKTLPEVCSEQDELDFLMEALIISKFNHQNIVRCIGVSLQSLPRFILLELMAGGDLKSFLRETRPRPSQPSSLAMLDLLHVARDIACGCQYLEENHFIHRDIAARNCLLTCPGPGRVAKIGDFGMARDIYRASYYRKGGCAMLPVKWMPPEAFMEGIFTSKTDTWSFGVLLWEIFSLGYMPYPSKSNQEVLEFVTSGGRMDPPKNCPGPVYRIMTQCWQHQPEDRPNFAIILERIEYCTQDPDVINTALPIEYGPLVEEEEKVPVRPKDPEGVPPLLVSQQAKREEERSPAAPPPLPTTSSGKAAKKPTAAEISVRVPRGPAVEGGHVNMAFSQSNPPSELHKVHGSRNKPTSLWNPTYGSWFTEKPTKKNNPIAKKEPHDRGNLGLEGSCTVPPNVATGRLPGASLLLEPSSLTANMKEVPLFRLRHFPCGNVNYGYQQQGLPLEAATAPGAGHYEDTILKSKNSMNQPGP
Assay [12] has as its target LIM domain kinase 1 (Homo sapiens, UniProt P53667). The experiment in a line: Navigating the Kinome. Panel member name: LIMK1.
Assay [13] addresses Dual specificity tyrosine-phosphorylation-regulated kinase 1B (Homo sapiens, UniProt Q9Y463). The assay is described as follows: Navigating the Kinome. Panel member name: DYRK1B.
The target in assay [14] is Leucine-rich repeat serine/threonine-protein kinase 2 (Homo sapiens, UniProt Q5S007).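 Further: value from a broad kinome-wide panel profiling study in which LRRK2 was one of the kinases tested.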
For assay [15], the target named is Proto-oncogene tyrosine-protein kinase receptor Ret (Homo sapiens, UniProt P07949).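 Further: measured within a kinome-wide profiling panel, RET as the panel member.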
In assay [16] the target is Cyclin-dependent kinase 7 (Homo sapiens, UniProt P50613).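 Further: value comes from a kinome-wide kinase profiling panel in which CDK7 is one member.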
Sequence of Cyclin-dependent kinase 7 (P50613 whole entry): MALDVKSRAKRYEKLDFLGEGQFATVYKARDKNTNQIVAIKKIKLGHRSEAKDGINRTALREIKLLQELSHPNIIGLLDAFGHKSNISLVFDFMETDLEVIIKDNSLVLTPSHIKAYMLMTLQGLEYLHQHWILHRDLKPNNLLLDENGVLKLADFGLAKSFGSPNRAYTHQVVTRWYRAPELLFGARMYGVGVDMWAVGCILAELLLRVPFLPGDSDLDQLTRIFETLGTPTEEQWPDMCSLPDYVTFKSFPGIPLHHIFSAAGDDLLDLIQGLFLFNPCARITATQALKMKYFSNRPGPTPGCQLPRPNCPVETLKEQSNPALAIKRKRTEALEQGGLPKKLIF
Assay [17] addresses Vascular endothelial growth factor receptor 2 (Homo sapiens, UniProt P35968).
Assay [18] has as its target Leukocyte tyrosine kinase receptor (Homo sapiens, UniProt P29376). The assay is described as follows: Navigating the Kinome. Panel member name: LTK.
Assay [19] addresses Macrophage colony-stimulating factor 1 receptor (Homo sapiens, UniProt P07333).
The target in assay [20] is Aurora kinase B (Homo sapiens, UniProt Q96GD4).
Sequence of Aurora kinase B (Q96GD4 whole entry): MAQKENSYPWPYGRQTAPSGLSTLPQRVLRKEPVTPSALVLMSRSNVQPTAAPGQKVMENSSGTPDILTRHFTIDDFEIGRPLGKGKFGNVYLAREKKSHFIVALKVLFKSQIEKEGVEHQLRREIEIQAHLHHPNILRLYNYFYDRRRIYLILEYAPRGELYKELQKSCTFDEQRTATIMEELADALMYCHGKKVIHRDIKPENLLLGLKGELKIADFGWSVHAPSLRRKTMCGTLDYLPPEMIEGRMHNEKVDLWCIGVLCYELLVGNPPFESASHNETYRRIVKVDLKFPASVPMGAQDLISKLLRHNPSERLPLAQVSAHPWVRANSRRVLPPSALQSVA
Assay [21] concerns the target Cyclin-dependent kinase 8 (Homo sapiens, UniProt P49336). The assay is described as follows: Navigating the Kinome. Panel member name: CDK8.
The target of assay [22] is Mitogen-activated protein kinase kinase kinase kinase 4 (Homo sapiens, UniProt O95819).
The target of assay [23] is Vascular endothelial growth factor receptor 1 (Homo sapiens, UniProt P17948).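 Further: measured within a kinome-wide profiling panel, FLT1 as the panel member.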
Assay [24] deals with Serine/threonine-protein kinase TBK1 (Homo sapiens, UniProt Q9UHD2). The assay is described as follows: Navigating the Kinome. Panel member name: TBK1.
The target in assay [25] is Death-associated protein kinase 3 (Homo sapiens, UniProt O43293).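 Further: measured as one member of a kinome-wide profiling panel.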
Sequence of Death-associated protein kinase 3 (O43293 whole entry, canonical isoform): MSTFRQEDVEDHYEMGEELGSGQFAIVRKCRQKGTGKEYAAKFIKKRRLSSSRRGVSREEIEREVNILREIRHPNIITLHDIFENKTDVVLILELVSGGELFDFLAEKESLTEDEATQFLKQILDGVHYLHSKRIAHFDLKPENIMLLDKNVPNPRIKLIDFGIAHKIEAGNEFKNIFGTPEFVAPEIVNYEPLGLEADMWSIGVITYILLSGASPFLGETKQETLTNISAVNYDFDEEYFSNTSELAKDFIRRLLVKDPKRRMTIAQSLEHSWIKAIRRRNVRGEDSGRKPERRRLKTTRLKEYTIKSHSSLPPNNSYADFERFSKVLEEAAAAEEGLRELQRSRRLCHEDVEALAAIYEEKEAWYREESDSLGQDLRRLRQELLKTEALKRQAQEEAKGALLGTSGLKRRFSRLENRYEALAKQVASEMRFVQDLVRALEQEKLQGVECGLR
The target of assay [26] is Casein kinase I isoform alpha (Homo sapiens, UniProt P48729).
Sequence of Casein kinase I isoform alpha (P48729 whole entry, canonical isoform): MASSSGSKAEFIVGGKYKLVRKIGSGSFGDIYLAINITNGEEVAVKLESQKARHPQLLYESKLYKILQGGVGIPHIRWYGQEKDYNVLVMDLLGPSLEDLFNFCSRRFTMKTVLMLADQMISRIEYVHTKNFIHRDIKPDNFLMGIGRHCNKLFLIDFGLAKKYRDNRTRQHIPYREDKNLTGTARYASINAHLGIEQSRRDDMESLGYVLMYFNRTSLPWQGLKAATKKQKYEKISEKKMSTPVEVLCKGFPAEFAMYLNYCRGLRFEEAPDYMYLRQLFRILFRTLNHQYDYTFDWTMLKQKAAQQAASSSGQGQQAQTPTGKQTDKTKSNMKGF
Assay [27] deals with Cyclin-dependent kinase 5 (Homo sapiens, UniProt Q00535).
Sequence of Cyclin-dependent kinase 5 (Q00535 whole entry): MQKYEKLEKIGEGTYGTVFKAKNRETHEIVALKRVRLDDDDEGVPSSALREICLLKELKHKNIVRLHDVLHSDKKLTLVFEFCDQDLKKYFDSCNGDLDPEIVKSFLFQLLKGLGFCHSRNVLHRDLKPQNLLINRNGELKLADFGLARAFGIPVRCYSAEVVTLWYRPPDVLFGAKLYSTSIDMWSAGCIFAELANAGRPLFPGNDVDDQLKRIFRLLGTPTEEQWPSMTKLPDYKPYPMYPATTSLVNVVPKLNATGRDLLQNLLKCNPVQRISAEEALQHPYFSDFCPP
Assay [28] concerns the target Dual specificity protein kinase CLK4 (Homo sapiens, UniProt Q9HAZ1).

Structures are written as SMILES. Active and inactive are the calls of the source.

Sequence of Neuropeptides B/W receptor type 1 (P48145 whole entry): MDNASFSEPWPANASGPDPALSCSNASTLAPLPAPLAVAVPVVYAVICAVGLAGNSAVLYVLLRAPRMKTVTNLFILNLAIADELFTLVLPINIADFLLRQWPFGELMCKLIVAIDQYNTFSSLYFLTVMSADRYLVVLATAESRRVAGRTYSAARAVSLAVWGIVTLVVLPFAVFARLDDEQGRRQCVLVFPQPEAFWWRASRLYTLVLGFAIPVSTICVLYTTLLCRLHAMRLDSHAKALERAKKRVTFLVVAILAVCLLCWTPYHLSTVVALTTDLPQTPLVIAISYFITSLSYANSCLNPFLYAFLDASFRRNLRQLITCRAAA
Sequence of Dual specificity protein kinase CLK4 (Q9HAZ1 whole entry): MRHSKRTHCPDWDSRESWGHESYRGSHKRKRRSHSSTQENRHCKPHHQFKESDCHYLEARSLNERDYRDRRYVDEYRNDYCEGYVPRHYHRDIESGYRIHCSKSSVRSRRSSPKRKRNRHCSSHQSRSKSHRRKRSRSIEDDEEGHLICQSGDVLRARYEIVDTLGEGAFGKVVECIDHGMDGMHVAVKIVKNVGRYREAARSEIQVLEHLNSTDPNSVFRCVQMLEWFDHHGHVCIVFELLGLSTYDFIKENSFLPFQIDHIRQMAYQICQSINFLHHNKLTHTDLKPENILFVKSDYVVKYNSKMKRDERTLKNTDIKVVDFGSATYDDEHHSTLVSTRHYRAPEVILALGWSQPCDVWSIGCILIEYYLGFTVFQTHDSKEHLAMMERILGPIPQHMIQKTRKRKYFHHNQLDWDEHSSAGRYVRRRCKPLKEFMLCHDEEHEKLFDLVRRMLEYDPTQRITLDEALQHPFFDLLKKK

As a reminder, the EC50 is the concentration at which the effect is half-maximal. For `COc1cc(OC)cc(-c2sc3ccc(OC)cc3c2-c2ccc(OCCN3CCOCC3)cc2)c1`, the EC50 is 13.7 µM (active) in assay [1], 11.3 µM (active) in assay [2] and 38.5 µM (active) in assay [3].
As a reminder, the IC50 is the point on the concentration scale where inhibition reaches its midpoint. In the case of `O=c1c(Cl)c(Oc2ccc3c(c2)OCO3)cnn1Cc1cccc2ccccc12`, the IC50 was 17.8 µM (inactive) in [4] and 3.3 µM (active) in assay [5].
As a reminder, the Ki is a dissociation constant, usually derived from enzyme kinetics or from competition with a known ligand. As to `Nc1ncnc2c1C(=O)NCCN2`, the Ki in [6] is 100 µM (active); in [7], 63.1 µM (active); in assay [8], 100 µM (active); in assay [9], 79.4 µM (active); in assay [10], 25.1 µM (active); in [11] it was 63.1 µM (active). Further, the Ki in assay [12] was 20 µM (active); in assay [13] it was 39.8 µM (active); in assay [14], 31.6 µM (active); in assay [15], 31.6 µM (active); in [16], 63.1 µM (active); in assay [17], 12.6 µM (active). Further, the Ki in [18] was 39.8 µM (active); in assay [19], 79.4 µM (active); in assay [20] it was 31.6 µM (active); in assay [21] it was 100 µM (active); in assay [22] it was 31.6 µM (active); in [23], 25.1 µM (active). The Ki is 50.1 µM (active) in [24]; 15.8 µM (active) in assay [25]; 20 µM (active) in assay [26]; 50.1 µM (active) in [27]; 25.1 µM (active) in assay [28].
